# Experimental data from PubChem BioAssay (NCI).
#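 In this assay, cells in 96-well plates receive the compound at five concentrations for 48 hours. Endpoints are linearly interpolated between the surrounding concentrations. Definition used: TGI = concentration required for complete inhibition of growth.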
# What was measured:
# Assay in all cases: DTP human tumour cell line panel, 48 h
# [1] = tested on: LOX IMVI melanoma
# [2] = tested on: SK-MEL-2 melanoma
# [3] = tested on: UACC-257 melanoma
# [4] = tested on: OVCAR-5 ovarian
# [5] = tested on: KM12 colon
# [6] = tested on: SNB-19 CNS
# [7] = tested on: MDA-N
# [8] = tested on: RPMI-8226 leukemia
# [9] = tested on: BT-549 breast
# [10] = tested on: HCT-15 colon
# [11] = tested on: HCC-2998 colon
# [12] = tested on: PC-3 prostate
# [13] = tested on: MALME-3M melanoma
# [14] = tested on: 786-0 renal
# [15] = tested on: ACHN renal
# [16] = tested on: SR leukemia
# [17] = tested on: MOLT-4 leukemia
# [18] = tested on: HCT-116 colon
# [19] = tested on: A498 renal
# [20] = tested on: TK-10 renal
# [21] = tested on: SF-539 CNS
# [22] = tested on: IGROV1 ovarian
# [23] = tested on: SW-620 colon
# [24] = tested on: NCI-H23 lung
# [25] = tested on: DU-145 prostate
# [26] = tested on: HL-60(TB) leukemia
# [27] = tested on: SK-OV-3 ovarian
# [28] = tested on: NCI-H226 lung
# [29] = tested on: NCI-H522 lung
# [30] = tested on: M14 melanoma
# [31] = tested on: CAKI-1 renal
# [32] = tested on: CCRF-CEM leukemia
# [33] = tested on: NCI/ADR-RES ovarian
# [34] = tested on: T-47D breast
# [35] = tested on: COLO 205 colon
# [36] = tested on: MDA-MB-231 breast
# [37] = tested on: SF-268 CNS
# [38] = tested on: MDA-MB-435
# [39] = tested on: A549 NSCLC
# [40] = tested on: OVCAR-4 ovarian
# [41] = tested on: HS 578T breast
# [42] = tested on: UACC-62 melanoma
# [43] = tested on: MCF7 breast
# [44] = tested on: HOP-62 NSCLC
# [45] = tested on: UO-31 renal
# [46] = tested on: OVCAR-8 ovarian
# [47] = tested on: RXF 393 renal
# [48] = tested on: K-562 leukemia
# [49] = tested on: U251 CNS
# [50] = tested on: SK-MEL-5 melanoma
# [51] = tested on: EKVX NSCLC
# [52] = tested on: OVCAR-3 ovarian
# [53] = tested on: HT29 colon
# [54] = tested on: SF-295 CNS
# [55] = tested on: SN12C renal
# [56] = tested on: SNB-75 CNS
compound,measurement,setting,value
Cc1ccc(S(=O)(=O)n2ccc(-c3ccc4ccn(S(=O)(=O)c5ccc(C)cc5)c4c3)c2)cc1,TGI,[1],> 100 µM
same,TGI,[2],> 100 µM
same,TGI,[3],> 100 µM
same,TGI,[4],> 100 µM
same,TGI,[5],> 100 µM
same,TGI,[6],> 100 µM
same,TGI,[7],> 100 µM
same,TGI,[8],> 100 µM
same,TGI,[9],> 100 µM
same,TGI,[10],> 100 µM
same,TGI,[11],> 100 µM
same,TGI,[12],> 100 µM
same,TGI,[13],> 100 µM
same,TGI,[14],> 100 µM
same,TGI,[15],> 100 µM
same,TGI,[16],> 100 µM
same,TGI,[17],> 100 µM
same,TGI,[18],> 100 µM
same,TGI,[19],> 100 µM
same,TGI,[20],> 100 µM
same,TGI,[21],> 100 µM
same,TGI,[22],> 100 µM
same,TGI,[23],> 100 µM
same,TGI,[24],> 100 µM
same,TGI,[25],> 100 µM
same,TGI,[26],> 100 µM
same,TGI,[27],> 100 µM
same,TGI,[28],> 100 µM
same,TGI,[29],> 100 µM
same,TGI,[30],> 100 µM
same,TGI,[31],> 100 µM
same,TGI,[32],> 100 µM
same,TGI,[33],> 100 µM
same,TGI,[34],> 100 µM
same,TGI,[35],> 100 µM
same,TGI,[36],> 100 µM
same,TGI,[37],> 100 µM
same,TGI,[38],> 100 µM
same,TGI,[39],> 100 µM
same,TGI,[40],> 100 µM
same,TGI,[41],> 100 µM
same,TGI,[42],> 100 µM
same,TGI,[43],> 100 µM
same,TGI,[44],> 100 µM
same,TGI,[45],> 100 µM
same,TGI,[46],> 100 µM
same,TGI,[47],39.3 µM
same,TGI,[48],> 100 µM
same,TGI,[49],> 100 µM
same,TGI,[50],> 100 µM
same,TGI,[51],> 100 µM
same,TGI,[52],> 100 µM
same,TGI,[53],> 100 µM
same,TGI,[54],> 100 µM
same,TGI,[55],> 100 µM
same,TGI,[56],> 100 µM
